Patent US20040057908A1, “Oral compositions and use thereof” (priority 2003, published 2004)
In brackets after ≈: the same amount, converted by molar mass. Several values for one entry are separate records, joined by “and”; a condition that tells them apart may be missing. Equal values may be shown once. Read-outs that look alike come from different tables or passages of the source. Marks after values point to notes of the source that are not given here.

Legend:
[1] = system: Streptococcus sobrinus 6715; experiment: Rat caries experiment: S. sobrinus recovered from the jaws; format: in vivo, Sprague Dawley rats; conditions: rats, topical twice daily, five weeks; 1.33 mM (fluoride 250 ppm); means (SD)
Procedure: (§1) Seven litters of ten female Sprague Dawley rats aged 14 days were purchased with their dams from Charles River (Kingston, N.Y., USA). […] The experiment proceeded for five weeks, at which time the animals were killed by CO2 asphyxiation. The lower left jaw was aseptically dissected, suspended in 5.0 mL of sterile saline solution, and sonicated (three 10-second pulses with 5-second intervals at 30 watts, Branson Sonifier 450). The suspension was plated on mitis salivarius agar plus streptomycin to estimate S. sobrinus population and on blood agar to determine total cultivable flora (TCF). […] The determination of caries score was blind by codification of the jaws and was done by 1 calibrated examiner. […] The level of significance was 5%.

streptococcal GTFs [2] = system: T1, streptococcal GTFs; experiment: GTF activity adsorbed onto sHA surface, all GTFs stated together; format: biochemical, Streptococcus mutans, S. sanguinis; conditions: 1.33 mM
T1 construct: Streptococcus milleri KSB8, which harbors the gtfB gene from S. mutans GS-5 (for GTF B production)
Procedure: Glucosyltransferase activity was measured by the incorporation of [^14C-glucose] from labeled sucrose (NEN Research Products, Boston, Mass.) into glucans (Germaine et al., 1974; Venkitaraman et al., 1995). The GTF enzyme added to each sample for all assays was equivalent to the amount required to incorporate 1.0-1.5 μmol of glucose over the four hours reaction (1.0-1.5 units).
For surface assays, the GTFs were adsorbed to hydroxyapatite beads coated with clarified whole saliva (free of GTF activity), as detailed elsewhere (Koo et al., 2000c; Schilling and Bowen, 1988, Venkitaraman et al., 1995). The saliva-coated hydroxyapatite (sHA) beads were exposed to sufficient enzyme to saturate the surface as determined experimentally. Following the adsorption of the enzyme, the beads were washed 3 times with buffer to remove the loosely bound material and exposed to 300 μl of the two-fold dilution series of test compounds (or control) for 30 min. at the same concentrations described above. The beads were washed and exposed to 300 μl [^14C-glucose]-sucrose substrate (100.0 mmol/l sucrose, final concentration). The radiolabeled glucan formed was collected and quantified by scintillation counting (Germaine et al., 1974; Venkitaraman et al., 1995). All the solution and surface assays were done in quadruplicate in at least 3 different experiments. […]

[3] = system: Mutans Streptococci Strains; experiment: MIC and MBC, broth dilution, all strains stated together; format: cell-based, S. mutans (GS-5 and UA159) and S. sobrinus 6715; conditions: Streptococcus mutans
Procedure: (§2) The minimum inhibitory concentration (MIC) and minimum bactericidal concentration (MBC) were determined for each test compound according to the National Committee for Clinical Laboratory Standards guidelines (Tentative standard M26-T, 1992; NCCLS Publication No. M7-A5, 2000) and Koo et al. (2000b). The broth microdilution and macrodilution methods (in TSB) were used for the antibacterial tests. The starting inoculum was 5×10^5 CFU/ml and the concentrations of test compounds ranged from 15.6 to 500 μM (two-fold dilutions). The MICs and MBCs were determined in quadruplicate in at least 3 different experiments.

[4] = system: S. mutans UA159 and S. sobrinus 6715 biofilms; experiment: Time-kill assay in 5-day-old biofilms; format: cell-based; conditions: for antibacterial activity against mutans streptococci biofilms (in words): 1.33 mM (fluoride 250 ppm); for decrease in viable counts of biofilms: 1.33 mM, after 2-4 h incubation
Procedure: Cells of mutans streptococci were grown in tryptone-yeast extract broth with addition of 1% (w/v) sucrose at 37° C. and 5% CO2. […] The killing assays were performed according to Phan et al. (2000). […] The homogenized suspension was serially diluted (10^1 to 10^4) and plated on tryptic soy agar or blood agar by means of a spiral plater (Autoplate model 3000, Spiral Biotech, Inc., Bethesda, Md). […] Killing curves were constructed by plotting log10 CFU/ml versus time over 4 h. All the assays were carried out in quadruplicate on at least 3 different occasions. Bactericidal effect was defined as a ≧3 log10 decreases in the CFU/ml from initial viable counts, at time zero. The potential for drug carry-over to produce falsely low viability counts was minimized by dilution of inocula and plating of small volumes of diluted samples (50 μl).

dental caries = experiment: Rat caries experiment: caries scores (Larson's modification of Keyes' system); format: in vivo, Sprague Dawley rats; conditions: for smooth-surface caries severity scores versus control (in words): Ds and Dm levels, tt-farnesol Dm only; for smooth-surface caries severity scores versus control (in words) / reduction of the incidence of smooth surface caries compared to control / incidence and severity of sulcal-surface caries (in words): p<0.05; for smooth surface caries, Keyes's score / reduction of the incidence of smooth surface caries compared to control / incidence and severity of sulcal-surface caries (in words): rats; for smooth surface caries, Keyes's score / reduction of the incidence of smooth surface caries compared to control: topical twice daily, five weeks
Procedure: as §1

streptococcal GTFs [5] = system: T1, streptococcal GTFs; experiment: GTF activity in solution, all GTFs (B, C, D, Ss) stated together; format: biochemical, Streptococcus mutans, S. sanguinis; conditions: for inhibitory effects on the activities of GTFs (in words): 1.33 mM (fluoride 250 ppm), solution and sHA surface
Procedure: The GTF enzyme added to each sample for all assays was equivalent to the amount required to incorporate 1.0-1.5 μmol of glucose over the four hours reaction (1.0-1.5 units).
The samples were incubated 37° C. with rocking for 4 h.
For this assay, a one-way layout experimental design was used in 4×2×7 factorial scheme (enzyme×state×dose). An analysis of variance was carried out and qualitative treatments were compared using Tukey test at level of 5% of significance (p<0.05). A non-linear regression was applied in order to evaluate effects of different concentrations.

mutans streptococci = experiment: Time-kill studies, broth macrodilution; format: cell-based, S. mutans GS-5 and UA159, S. sobrinus 6715
Procedure: For the compound with highest antibacterial activity, the time kill studies were performed by broth macrodilution method (National Committee for Clinical Laboratory Standards, Tentative standard M26-T, 1992). The starting inoculum of S. mutans GS-5 and UA159, and S. sobrinus 6715 was 1-5×10^6 CFU/ml. The final concentration of the antibacterial agent was 4 times MIC (or MBC values). Tubes containing the microorganisms and the test compound in TSB were incubated in 5% CO2 at 37° C.; samples were removed for viable counts at 0, 30 min., 1, 2, 4, 8, and 24 h. Serial dilutions (10^−1 to 10^−4) were prepared in sterile 0.9% sodium chloride solution. The diluted sample (50 μl) was plated on to tryptic soy agar by means of a spiral plater (Autoplate model 3000, Spiral Biotech, Inc., Bethesda, Md.). The plates were incubated in 5% CO2 at 37° C. for 48 h, when the number of colonies was determined. Killing curves were constructed by plotting log10 CFU/ml versus time over 24 h. All the assays were done in quadruplicate on at least 3 occasions. Bactericidal effect was defined as a ≧3 log10 decreases in the CFU/ml from the original inoculum. The potential for drug carry-over to produce falsely low viability counts was minimized by dilution of inocula and plating of small volumes of diluted samples (50 μl). In addition, no evidence of drug carry-over was detected at the lowest dilution used for plating (10^−1).

streptococci = experiment: Membrane disruption seen in the phase-contrast microscope; format: cell-based
S. mutans strains = experiment: MIC and MBC, broth dilution, S. mutans strains stated together; format: cell-based, S. mutans (GS-5 and UA159)
Procedure: as §2

biofilms = experiment: Formation of biofilms (continued research); format: cell-based
[6] = system: Streptococcus mutans GS-5; experiment: MIC and MBC, broth dilution; format: cell-based
Procedure: as §2

[7] = system: Streptococcus mutans UA 159; experiment: MIC and MBC, broth dilution; format: cell-based
Procedure: as §2

[8] = system: Streptococcus sobrinus 6715; experiment: MIC and MBC, broth dilution; format: cell-based
Procedure: as §2

[H]/N=C(\N/C(=N/[H])NCCCCCCNC(=N)NC(=N)Nc1ccc(Cl)cc1)Nc1ccc(Cl)cc1 [Chlorhexidine, chlorhexidine, reference compound]
Infection by S. sobrinus, % [1]: 34.1 (10.8)^b %
inhibition of GTFs on a surface (streptococcal GTFs [2]): 10-20%
MIC ([3]; all strains tested (S. mutans GS-5, UA159, S. sobrinus 6715), read-out: MIC): 1.1 to 2.2 µM
MIC ([3]; all strains tested, read-out: MIC): 1 to 2 µg/mL
MBC ([3]; mutans streptococci strains): 8.9 µM and 8 µg/mL
antibacterial activity against mutans streptococci biofilms (in words) [4]: not bactericidal
decrease in viable counts of biofilms [4]: 2-3 log10 CFU/ml
smooth-surface caries severity scores versus control (in words) (dental caries): significantly lower
smooth surface caries, Keyes's score (dental caries): 2.0±1.9
reduction of the incidence of smooth surface caries compared to control (dental caries): 75%
incidence and severity of sulcal-surface caries (in words) (dental caries): reduced
inhibition of GTFs in solution (streptococcal GTFs [5]; 1.33 mM): 30-45%
inhibitory effects on the activities of GTFs (in words) (streptococcal GTFs [5]): either negligible or moderate inhibitory effects
incubation time to bactericidal effects (mutans streptococci; 8.9 μM (MBC), mutans streptococci strains): 8 h

[F-].[Na+] [Fluoride, sodium fluoride]
Infection by S. sobrinus, % [1]: 39.8 (13.2)^ab %
antibacterial activity against mutans streptococci biofilms (in words) [4]: devoid of detectable antimicrobial and anti-GTF activity
antibacterial activity against mutans streptococci biofilms (in words) ([4]; listed as fluoride): negligible antibacterial activity
smooth-surface caries severity scores versus control (in words) (dental caries): significantly lower
smooth surface caries, Keyes's score (dental caries): 2.3±3.0
reduction of the incidence of smooth surface caries compared to control (dental caries): 72%
incidence and severity of sulcal-surface caries (in words) (dental caries): reduced
inhibitory effects on the activities of GTFs (in words) (streptococcal GTFs [5]): devoid of detectable antimicrobial and anti-GTF activity
inhibitory effects on the activities of GTFs (in words) (streptococcal GTFs [5]; listed as fluoride): either negligible or moderate inhibitory effects

O=C(O)c1ccc(O)c(O)c1 [Protocatechuic acid]
MIC [3]: > 500 µM
effects on GTF enzymes (in words) (streptococcal GTFs [5]; 125 to 500 μM, solution and surface not told apart): enhanced

CC(C)=CCC/C(C)=C/CC/C(C)=C/CO [tt-Farnesol]
Infection by S. sobrinus, % [1]: 44.8 (8.2)^a %
decrease in viable counts of biofilms [4]: 1 log10 CFU/ml
smooth-surface caries severity scores versus control (in words) (dental caries): significantly lower
concentration giving visible membrane disruption of streptococci (streptococci): > 10 mM
MBC (S. mutans strains): 500 μM and 112 μg/ml
MIC (S. mutans strains): 125 μM and 28 μg/ml
inhibitory effects on the activities of GTFs (in words) (streptococcal GTFs [5]): either negligible or moderate inhibitory effects
effects on enzyme activity (GTFs) (streptococcal GTFs [5]; 1.33 mM, solution or surface not specified): 10-20%
incubation time to bactericidal effects (≧3 log decrease in CFU/ml) (mutans streptococci; four times the MIC (or MBC), S. sobrinus 6715 and S. mutans strains): 4-8 h
reduction of viable counts (mutans streptococci; four times the MIC (or MBC), within 30 min. to 1 h of incubation): 1 log of CFU/ml
formation of biofilms (in words) (biofilms): inhibits formation of biofilms
MBC [6]: 500 µM (≈ 111 µg/mL)
MIC [6]: 125 µM (≈ 27.8 µg/mL)
MBC [7]: 500 µM (≈ 111 µg/mL)
MIC [7]: 125 µM (≈ 27.8 µg/mL)
MBC ([8]; S. sobrinus 6715): 56 µg/mL
MIC ([8]; S. sobrinus 6715): 14 µg/mL
MBC ([8]; Streptococcus sobrinus 6715): 250 µM
MIC ([8]; Streptococcus sobrinus 6715): 62.5 µM
